Test results taken from paper PMC5861220, “The Cytochrome P450-Mediated Metabolism Alternation of Four Effective Lignans From Schisandra chinensis in Carbon Tetrachloride-Intoxicated Rats and Patients With Advanced Hepatocellular Carcinoma” (Frontiers in Pharmacology, 2018).
Where two headings read alike, the source gives them in different places.

Tests used:
[1] = test system: acute liver injury (ALI) rats; test: Biochemical indexes of liver and renal functions in CCl4-intoxicated (ALI) rats; assay type: in vivo, rat
Method: Male Sprague-Dawley rats, weighing 180–220 g, were obtained from Beijing Vital River Experimental Animal Co., Ltd. The animals were quarantined for 1 week prior to study and maintained on a 12-h light/12-h dark cycle at 22 ± 1°C and at 50–55% relative humidity with free access to solid pellet diet and water ad libitum throughout the study. All rats were assigned randomly to three groups, including acute liver injury (ALI) rat, SC-treated ALI rat and the control, 5 in each group. The ALI and SC-treated ALI rats were intraperitoneal injected two doses of the mixture of CCl4 and olive oil (1:1, V/V) at 2 mL/kg in a 24 h time interval (Huang et al., [2001]), while the control group was given the same volume of olive oil. Then, the SC-treated ALI rat was orally dosed with SC alcoholic extract suspended in 0.5% sodium carboxymethyl cellulose (CMC) at 1.5 g/kg/day for 4 days after CCl4 injection. The dosages were set according to the amounts of the four active lignans used previously for pharmacological studies and their contents in the extract (Chiu et al., [2002], [2007]; Cheng et al., [2013]). All animal protocols were approved by the Animal Care and Welfare Committee of the Academy of Military Medical Sciences. All animal procedures complied with the Guide for the Care and Use of Laboratory Animals issued by Beijing Association on Laboratory Animal Care (BALAC).
Serum aspartate transaminase (AST), alanine transaminase (ALT), alkaline phosphatase (ALP), lactate dehydrogenase (LDH), total bilirubin, blood urea nitrogen (BUN), and creatinine (CRE) levels were determined with commercial kits (Nanjing Jiancheng Bioengineering Institute, China).

[2] = Transport across Caco-2 cell monolayer; assay type: in vitro ADME; conditions: human, 5 μM
Method: (§1) Caco-2 cell (passage 38) was used in the transport experiments. Cells were seeded on polycarbonate filters (12 mm diameter, pore size […]) at 1 × 10^5/cm^2. The cell monolayer was formed 21 days post seeding when the transepithelial electrical resistance (TEER) was above 1,000 Ω• cm^2. Three concentration levels (5, 10, and 50 μM) were set for the four schisandra lignans in the study. After preincubation for 1 h at 37°C, the solution of the four lignans was respectively added to the apical (0.4 mL) or basolateral (0.6 mL) chamber for absorptive (AP → BL) and secretive (BL → AP) permeability test. At the specified timepoints (0.5, 1, 1.5 and 2 h), 50 μL samples (n = 3) were withdrawn from receiver chamber, and meanwhile, 50 μL fresh buffer was added. The four lignans were determined by HPLC-MS method.
(§2) The efflux rate (ER) was calculated by the formula ER = Papp (BL → AP)/Papp(AP → BL).

[3] = test system: rat intestine (jejunum segment); test: In situ intestinal perfusion of four lignans; assay type: in vivo; conditions: for Perfusate (Percent of the initial dose) / Plasma (Percent of the initial dose) / Intestine (Percent of the initial dose) / Pblood / Plumen: 50 μM, n = 3; for Perfusate (Percent of the initial dose): intestinal perfusion 60 min; for Plasma (Percent of the initial dose) / Intestine (Percent of the initial dose): intestinal perfusion; for Plasma (Percent of the initial dose): mesenteric vein blood
Method: The surgical procedures of intestinal perfusion were conducted according to those published reports (Savina et al., [1981]). Hank's balanced salt solution (HBSS, pH 7.4) with four schisandra lignans (50 μM) at 37°C was infused into the jejunum segment at rate of 0.3 mL/min. Phenol Red (50 μM) was added to serve as a nonabsorbable marker for measuring water flux. Blood samples from mesenteric vein and perfusate were collected at 5-min interval. The plasma separated by centrifugation and perfusate was stored at −20°C until HPLC-MS analysis.
The permeability of four lignans across the rat intestine was calculated based on the disappearance of parent drug from the lumen (Plumen) as well as the appearance of the drug in blood (Pblood) using the following equations (Singhal et al., [1998]):
(1) Plumen = −Q/2πrlLnCout/Cin
(1) Pblood = ΔMB/Δt/2πrl{C}
where r is the radius of the perfused intestinal lumen; l is the length of the segment; Q is the flow rate of perfusate; Cin is the concentration of drug at the start of perfusion; and Cout is the steady-state concentration of drug exiting the lumen. ΔMB/Δt is the rate of drug appearance in mesenteric blood; and {C} is the logarithmic mean concentration of drug in the lumen.

[4] = Pharmacokinetics of four lignans in rats after oral SC alcoholic extract; assay type: in vivo, rat
Method: The pharmacokinetic profiles of four lignans were studied in ALI rat after multiple oral administrations of SC alcoholic extract at dose of 1.5 g/kg/day. After the ALI rat was established, SC alcoholic extract suspended in 0.5% sodium carboxymethyl cellulose was given to ALI rats and the control via oral gavage once a day for 4 consecutive days. Before the last dosing, rats were fasted for 12 h while water was taken freely. Blood samples were collected at 0, 0.25, 0.5, 1, 2, 3, 4, 6, 8, 12, 24, 36, and 48 h after the last dosing. A cannula was surgically placed into the jugular vein for collection of blood samples (about 0.1 mL) and blood loss compensation using sterile isotonic saline in the pharmacokinetic study. Plasma was separated by centrifugation and stored at −20°C until analysis. Plasma concentrations of the four lignans were quantified using HPLC-MS analysis developed according to the reported method (Wang et al., [2008]).
Data fitting and pharmacokinetic parameter calculations were carried out using the Winnolin software. Non-compartmental analysis was used to calculate the pharmacokinetic parameters. Parameters, such as AUC and MRT, were calculated using statistical moment method.

rat liver = test: In situ hepatic perfusion of four lignans; assay type: in vivo; conditions: 10 μM, n = 3; for Total amount of analyte in bile / Total amount of analyte in liver: hepatic perfusion 60 min; for AUC: perfusate AUC(0−1h)
Method: In situ liver perfusion was performed similarly as the method described previously (Uraki et al., [2016]). […] The perfusate consisted of Krebs–Hensleit buffer (pH 7.4) containing sodium taurocholate (4.75 mg/L), 1% bovine serum albumin, and glucose (1.2 g/L) was oxygenated using carbogen, 95% O2/5% CO2. The perfusate at 37°C was infused into the portal vein at a flow rate of 30 mL/min in a recirculatory manner. After 10-min equilibration, four schisandra lignans were added to the reservoir (final concentration of 10 μM). Perfusate (0.5 mL) and bile samples were collected at 0, 10, 20, 30, 40, 50, and 60 min after the addition of lignans. The same volume of blank perfusion buffer was immediately added to the reservoir after collection of the perfusate samples. After hepatic perfusion, rat was sacrificed and liver was removed, blotted dry, and weighed.

Caco-2 cell monolayer = test: Transport across Caco-2 cell monolayer; assay type: in vitro ADME; conditions: for ER: ER = Papp (BL → AP)/Papp(AP → BL)
Method: as §1, §2

[5] = ALI rat intoxicated with CCl4 vs control rats
[6] = CCl4-intoxicated rats vs control
[7] = Caco-2, with PSC833 (concentration not stated), + PSC833
[8] = Caco-2, ER = Papp (BL → AP)/Papp(AP → BL)
[9] = CCl4-intoxicated rats, oral SC alcoholic extract 1.5 g/kg/day for 4 days, plasma, n = 5
[10] = Control (normal) rats, oral SC alcoholic extract 1.5 g/kg/day for 4 days, plasma, n = 5

ClC(Cl)(Cl)Cl [CCl4, carbon tetrachloride]
Decrease of content of liver microsomal CYP450 enzyme [1, 5]: 54%
Increase of BUN [1, 5]: 30%
Increase of liver index [1, 5]: 40%
Increase of serum ALT [1, 5]: 720%
Increase of serum AST [1, 5]: 30%
BUN ([1]; CCl4-intoxicated rats): 18.3 ± 1.2 mg/dL
CRE ([1]; CCl4-intoxicated rats): 0.8 ± 0.1 mg/dL
Serum ALT increase [1, 6]: 8.2 folds
Serum AST increase [1, 6]: 1.3 folds
Liver index ([1]; CCl4-intoxicated rats, CCl4:olive oil (1:1) 2 mL/kg i.p., two doses): 38 ± 5 g/kg
Liver P450 ([1]; CCl4-intoxicated rats, liver microsomal CYP450 content): 0.27 ± 0.12 nmol/mg
ALP ([1]; CCl4-intoxicated rats, serum): 8.15 ± 0.09 IU/L
ALT ([1]; CCl4-intoxicated rats, serum): 329 ± 49 IU/L
AST ([1]; CCl4-intoxicated rats, serum): 268 ± 49 IU/L
LDH ([1]; CCl4-intoxicated rats, serum): 605 ± 168 IU/L
TB ([1]; CCl4-intoxicated rats, total bilirubin): 0.09 ± 0.02 mg/dL

C[C@H]1O[C@@H](O[C@H]2[C@@H](O)C[C@H](O[C@H]3[C@@H](O)C[C@H](O[C@H]4CC[C@@]5(C)[C@H](CC[C@@H]6[C@@H]5C[C@@H](O)[C@]5(C)[C@@H](C7=CC(=O)OC7)CC[C@]65O)C4)O[C@@H]3C)O[C@@H]2C)C[C@H](O)[C@@H]1O [Digoxin, digoxin, reference compound]
Papp A→B at 2 h, 5 μM [2, 7]: 1.46 ± 0.24 ×10⁻⁶ cm/s
Papp B→A at 2 h, 5 μM [2, 7]: 2.38 ± 0.58 ×10⁻⁶ cm/s
efflux ratio at 2 h, 5 μM ([2]; Caco-2, with PSC833 (concentration not stated), + PSC833, read-out: ER): 1.63
Papp A→B at 2 h, 5 μM ([2]; Caco-2): 3.29 ± 4.02 ×10⁻⁶ cm/s
Papp B→A at 2 h, 5 μM ([2]; Caco-2): 11.6 ± 0.82 ×10⁻⁶ cm/s
efflux ratio at 2 h, 5 μM [2, 8]: 3.53

CC(C)NCC(O)COc1cccc2ccccc12 (stereo not drawn) [Propranolol, propranolol, reference compound]
Papp A→B at 2 h, 5 μM ([2]; Caco-2): 32.9 ± 6.03 ×10⁻⁶ cm/s
Papp B→A at 2 h, 5 μM ([2]; Caco-2): 24.6 ± 1.8 ×10⁻⁶ cm/s
efflux ratio at 2 h, 5 μM [2, 8]: 0.75

schisantherin A
Perfusate (Percent of the initial dose) ([3]; CCl4-intoxicated rats): 92.85 ± 1.33% of the initial dose
Plasma (Percent of the initial dose) ([3]; CCl4-intoxicated rats): 0.82 ± 0.04% of the initial dose
Intestine (Percent of the initial dose) ([3]; CCl4-intoxicated rats): 1.95 ± 0.36% of the initial dose
Pblood ([3]; CCl4-intoxicated rats): 0.060 ± 0.016 × 10^−4 cm/s
Plumen ([3]; CCl4-intoxicated rats): 2.047 ± 0.373 × 10^−4 cm/s
Perfusate (Percent of the initial dose) ([3]; Control rats): 92.47 ± 1.06% of the initial dose
Plasma (Percent of the initial dose) ([3]; Control rats): 0.80 ± 0.07% of the initial dose
Intestine (Percent of the initial dose) ([3]; Control rats): 1.65 ± 0.37% of the initial dose
Pblood ([3]; Control rats): 0.047 ± 0.006 × 10^−4 cm/s
Plumen ([3]; Control rats): 2.303 ± 0.163 × 10^−4 cm/s
Increase of remaining amount in perfusate ([3]; intestinal autoperfusion (60 min), CCl4-treated rats vs control): not changed
AUC(0−t) [4, 9]: 99600 ± 45600 ng·h/mL
CLz/F [4, 9]: 234.05 ± 115.74 L/h/kg
Cmax [4, 9]: 3190 ± 1160 ng/mL
MRT(0−t) [4, 9]: 19.84 ± 1.18 h
Tmax [4, 9]: 9.60 ± 3.29 h
t1/2 [4, 9]: 17.65 ± 3.32 h
Reduction of systemic clearance (CLz/F) ([4]; CCl4 intoxicated rats vs control rats): ~89%
AUC(0−t) [4, 10]: 11300 ± 3870 ng·h/mL
Cmax [4, 10]: 569 ± 163 ng/mL
MRT(0−t) [4, 10]: 15.42 ± 0.29 h
Tmax [4, 10]: 5.00 ± 1.41 h
t1/2 [4, 10]: 12.39 ± 2.12 h
Total amount of analyte in bile (rat liver; CCl4-intoxicated rats): 1.61 ± 0.34 µg
Total amount of analyte in liver (rat liver; CCl4-intoxicated rats): 17.15 ± 1.84 µg
AUC (rat liver; CCl4-intoxicated rats): 4790 ± 30 ng·h/mL
Total amount of analyte in bile (rat liver; Control rats): 1.48 ± 0.23 µg
Total amount of analyte in liver (rat liver; Control rats): 12.36 ± 1.65 µg
AUC (rat liver; Control rats): 4080 ± 140 ng·h/mL
Papp(AP−BL) (Caco-2 cell monolayer; 5 μM): 1.33 ± 0.12 × 10^−6 cm/s
Papp(BL−AP) (Caco-2 cell monolayer; 5 μM): 1.52 ± 0.26 × 10^−6 cm/s
ER (Caco-2 cell monolayer; 5 μM): 1.14
Papp(AP−BL) (Caco-2 cell monolayer; 10 μM): 1.81 ± 0.35 × 10^−6 cm/s
Papp(BL−AP) (Caco-2 cell monolayer; 10 μM): 2.28 ± 0.47 × 10^−6 cm/s
ER (Caco-2 cell monolayer; 10 μM): 1.26
Papp(AP−BL) (Caco-2 cell monolayer; 50 μM): 1.43 ± 0.35 × 10^−6 cm/s
Papp(BL−AP) (Caco-2 cell monolayer; 50 μM): 1.28 ± 0.24 × 10^−6 cm/s
ER (Caco-2 cell monolayer; 50 μM): 0.89
